Values quoted from earlier work, collected in US9006272B2, “Pharmaceutical compositions and method for treating inflammation in cattle and other animals” (Intervet Inc., priority 2006, dated 2015).

Conditions: background statement

For `Cc1c(Nc2ncccc2C(=O)O)cccc1C(F)(F)F` [flunixin meglumine], the lipid solubility is listed as “very poor”.
